Six molecules from ChEMBL document CHEMBL1150838, “Cytotoxic constituents of the fruits of Cananga odorata” (J Nat Prod, 2001) can be followed below.

Converted amounts (≈) assume the structure as drawn.

In one assay the test system is HepG2. The assay is described as follows: Cytotoxicity against human HepG2 cells by MTT assay. It is filed as functional, cell-based. (In general: Tetrazolium dyes change colour on reduction, which living cells bring about.)
Assay [1] can be described thus: Cytotoxicity against human HepG2(2.2.15) cells by MTT assay. It is filed as functional, cell-based.

By IC50 is commonly meant the point on the concentration scale where inhibition reaches its midpoint. High values mean weaker potency, low ones greater potency. Regarding `CC1=C2C[C@H](C(C)(C)O)CC[C@@]2(C)CCC1`, the IC50 in the assay with HepG2 is 1.5 µg/mL (≈ 6.75 µM); in assay [1], 0.01 µg/mL (≈ 0.045 µM).
The corresponding values for `COc1cc(/C=C/C(=O)NCCc2ccc(O)cc2)ccc1O` [N-TRANS-FERULOYL TYRAMINE] are 6.6 µg/mL (≈ 21.1 µM) and 1.9 µg/mL (≈ 6.06 µM).
With `Cc1ccnc2c1C(=O)c1ccccc1C2=O` [CLEISTOPHOLINE], the figures for the half-inhibitory concentration (IC50) (in the assay with HepG2; in assay [1]) were 0.22 µg/mL (≈ 0.986 µM) and 0.54 µg/mL (≈ 2.42 µM), respectively.
In the same order, the values of `Cc1ccc2c(n1)C[C@H](C(C)(C)O)CC[C@H]2C` [CANANODINE] are 0.22 µg/mL (≈ 0.943 µM) and 3.8 µg/mL (≈ 16.3 µM).
On to `CC1=C2C[C@H](C(C)(C)O[C@@H]3O[C@@H](C)[C@H](O)[C@@H](O)[C@H]3O)CC[C@@]2(C)CCC1`, for which the IC50 in the assay on HepG2 came to 3.9 µg/mL (≈ 10.6 µM); in assay [1], 10.6 µg/mL (≈ 28.8 µM).
In the same order, the values of `C[C@@H]1O[C@@H](OC(C)(C)[C@@H]2CC[C@@]3(C)CCC[C@@](C)(O)[C@@H]3C2)[C@H](O)[C@H](O)[C@H]1O` are 0.01 µg/mL (≈ 0.0259 µM) and 0.36 µg/mL (≈ 0.931 µM).
